Experimental data: US20250034089A1, “TETRAHYDROCARBAZOLE COMPOUND, AND PHARMACEUTICAL COMPOSITION AND USE THEREOF” (NAIN BIOTECH (HANGZHOU) CO., LTD., priority 2021, published 2025)

Test system: Huh7 (human liver cancer cells)
Assay: In vitro proliferation inhibition (CCK-8), Huh7
Type: cell-based
Settings: Homo sapiens, Huh-7, Huh7, test (2), average±standard deviation of three wells
Source text: (§1) • 1) Cell sources: HeLa (human cervical cancer cells), CaSki (human cervical cancer intestinal metastasis cells), Huh7 (human liver cancer cells), HepG2 (human liver cancer cells), Hep3B (human liver cancer cells) were purchased from the Chinese Academy of Sciences cell bank (Shanghai); LO2 (human normal liver cells) and HcerEpic (human normal uterine epithelial cells) were from ATCC. • 2) Cell culture and passage: The cell culture and passage method is the same as that described in “The inhibitory effect of compounds on the OCT4 protein in tumor stem cells (CSC)”. • 3) Cell dosing treatment: The each type of cells mentioned above was digested, counted, and inoculated in each well of the 96 well cell culture plate (#3988, Corning) at a density of 5000 cells/200 μl culture medium. They were cultured in a cell culture incubator at 37° C. and 5% CO2 for 24 hours to allow the cells to fully adherent to the wall. Then, the original culture medium was replaced with complete culture medium containing gradient diluted KZT-A5 (each concentration with 3 repeated wells) as well as DMSO (#D5879, Sigma Aldrich) solvent control, and they are cultured for additional 72 hours. • 4) Pharmacodynamic test and statistics: First, the morphology of cells treated with the above compounds was observed, photographed and recorded using an inverted phase contrast microscope (X71, Olympus). Then the original culture medium was replaced with phenol red free culture medium containing CCK-8 detection reagent (#E606335, Shanghai Shenggong) respectively, and they are cultured in the incubator for additional 2 hours. Then the OD450 nm absorbance value (OD value) was measured on a multifunctional enzyme-linked immunosorbent assay (168-1130, Bio Rad). After the cells were treated with the test compound, the equations for calculating the cell survival rate or cell growth rate is: survival rate=GD value of the treated group/OD value of the control group×100%; the equations for calculating the growth inhibition rate of compounds on cell proliferation is: inhibition rate=(OD value of control group−OD value of the treated group)/OD value of control group×100%. Further, the IC50 of each compound was calculated in SPSS based on the inhibition rate.
(§2) • 1) Cell sources: Huh7 (human liver cancer cells), HepG2 (human liver cancer cells), Hep3B (human liver cancer cells), and HeLa (human cervical cancer cells) were all purchased from the Chinese Academy of Sciences cell bank (Shanghai), while LO2 (human normal liver cells) was obtained from ATCC. • 2) Cell culture and passage: The cell culture and passage method is the same as that described in “The inhibitory effect of compounds on human tumor cell lines from different tissue sources (1)”. • 3) Cell dosing treatment: The cell dosing treatment method is the same as that described in “The inhibitory effect of compounds on human tumor cell lines from different tissue sources (1). • 4) Pharmacodynamic test and statistics: The pharmacodynamic test and statistics method is the same as that described in “The inhibitory effect of compounds on human tumor cell lines from different tissue sources (1)”. The IC50 value data of the compound on each type of tumor cells is the average±standard deviation of three wells in one test.

| IC50 | SMILES |
| --- | --- |
| 44.2 ± 1.61 µM | CCC(CO)/N=C1\CCCc2c1[nH]c1ccc(C)cc21 (stereo not drawn) [AH057, reference compound] |

Test system: HepG2 (human liver cancer cells)
Assay: In vitro proliferation inhibition (CCK-8), HepG2
Type: cell-based
Settings: Homo sapiens; HepG2, test (2), average±standard deviation of three wells
Source text: (§3) • 1) Cell sources: HeLa (human cervical cancer cells), CaSki (human cervical cancer intestinal metastasis cells), Huh7 (human liver cancer cells), HepG2 (human liver cancer cells), Hep3B (human liver cancer cells) were purchased from the Chinese Academy of Sciences cell bank (Shanghai); LO2 (human normal liver cells) and HcerEpic (human normal uterine epithelial cells) were from ATCC. • 2) Cell culture and passage: The cell culture and passage method is the same as that described in “The inhibitory effect of compounds on the OCT4 protein in tumor stem cells (CSC)”. • 3) Cell dosing treatment: The each type of cells mentioned above was digested, counted, and inoculated in each well of the 96 well cell culture plate (#3988, Corning) at a density of 5000 cells/200 μl culture medium. They were cultured in a cell culture incubator at 37° C. and 5% CO2 for 24 hours to allow the cells to fully adherent to the wall. Then, the original culture medium was replaced with complete culture medium containing gradient diluted KZT-A5 (each concentration with 3 repeated wells) as well as DMSO (#D5879, Sigma Aldrich) solvent control, and they are cultured for additional 72 hours. • 4) Pharmacodynamic test and statistics: First, the morphology of cells treated with the above compounds was observed, photographed and recorded using an inverted phase contrast microscope (X71, Olympus). Then the original culture medium was replaced with phenol red free culture medium containing CCK-8 detection reagent (#E606335, Shanghai Shenggong) respectively, and they are cultured in the incubator for additional 2 hours. Then the OD450 nm absorbance value (OD value) was measured on a multifunctional enzyme-linked immunosorbent assay (168-1130, Bio Rad). After the cells were treated with the test compound, the equations for calculating the cell survival rate or cell growth rate is: survival rate=GD value of the treated group/OD value of the control group×100%; the equations for calculating the growth inhibition rate of compounds on cell proliferation is: inhibition rate=(OD value of control group−OD value of the treated group)/OD value of control group×100%. Further, the IC50 of each compound was calculated in SPSS based on the inhibition rate. […]

| IC50 | SMILES |
| --- | --- |
| 40.02 ± 0.08 µM | CCC(CO)/N=C1\CCCc2c1[nH]c1ccc(C)cc21 (stereo not drawn) [AH057, reference compound] |

Test system: HeLa (human cervical cancer cells)
Assay: In vitro proliferation inhibition (CCK-8), HeLa
Type: cell-based
Settings: Homo sapiens, 72 h, CCK-8, average of three wells in one test
Source text: as §1, §2

| IC50 | SMILES |
| --- | --- |
| < 50 µM | COc1cc(CC2CCc3c([nH]c4ccc(C)cc34)C2=O)ccc1O (stereo not drawn) [Compound 8] |
| < 50 µM | Cc1ccc2[nH]c3c(c2c1)CC/C(=C\c1c[nH]c2ncccc12)C3=O [Compound 14] |
| < 50 µM | Cc1ccc2[nH]c3c(c2c1)CC/C(=C\c1ccnc2[nH]ccc12)C3=O [Compound 16] |
| < 50 µM | COc1cc(/C=C2\CCc3c([nH]c4ccc(Br)cc34)C2=O)ccc1O [Compound 19] |
| < 50 µM | COc1cc(/C=C2\CCc3c([nH]c4ccc(C#N)cc34)C2=O)ccc1O [Compound 20] |
| < 50 µM | COC(=O)c1ccc2[nH]c3c(c2c1)CC/C(=C\c1ccc(O)c(OC)c1)C3=O [Compound 21] |
| < 50 µM | COc1cc(/C=C2\CCc3c([nH]c4ccc(N5CCC(O)CC5)cc34)C2=O)ccc1O [Compound 22] |
| < 50 µM | COc1cc(/C=C2\CCc3c([nH]c4ccc(N5CCNCC5)cc34)C2=O)ccc1O [Compound 23] |
| < 50 µM | COc1cc(/C=C2\CCc3c([nH]c4ccc(-c5cn[nH]c5)cc34)C2=O)ccc1O [Compound 24] |
| < 50 µM | C#Cc1ccc2[nH]c3c(c2c1)CC/C(=C\c1ccc(O)c(OC)c1)C3=O [Compound 25] |
| < 50 µM | COc1cc(/C=C2\CCc3c([nH]c4ccc(F)cc34)C2=O)ccc1O [Compound 27] |
| < 50 µM | COC(=O)c1ccc2[nH]c3c(c2n1)CC/C(=C\c1ccc(O)c(OC)c1)C3=O [Compound 28] |
| < 50 µM | COc1cc(/C=C2\CCc3c([nH]c4cc(OC)c(OC)cc34)C2=O)ccc1O [Compound 31] |
| < 50 µM | COc1cc(/C=C2\CCc3c([nH]c4c(Cl)cc(Cl)cc34)C2=O)ccc1O [Compound 32] |
| < 50 µM | COc1ccc2[nH]c3c(c2n1)CC/C(=C\c1ccc(O)c(OC)c1)C3=O [Compound 33] |

Same assay, conditions: Homo sapiens, 72 hours, CCK-8, average of three wells in one test

| SMILES | IC50 |
| --- | --- |
| COc1ccc2[nH]c3c(c2c1)CC/C(=C\c1ccc(O)c(OC)c1)C3=O [Compound 18] | < 50 µM |
| COc1cc(/C=C2\CC(C)(C)c3c([nH]c4ccc(C)cc34)C2=O)ccc1O [Compound 34] | < 50 µM |
| COc1cc(/C=C2\Cc3c([nH]c4ccc(C)cc34)C2=O)ccc1O [Compound 35] | < 50 µM |
| COc1cc(/C=C2\CSc3c([nH]c4ccc(C)cc34)C2=O)ccc1O [Compound 36] | < 50 µM |
| COc1cc(/C=C2\CCCc3c([nH]c4ccc(C)cc34)C2=O)ccc1O [Compound 37] | < 50 µM |
| COc1cc(/C=C2\CCc3c([nH]c4ccc(C)cc34)C2=O)cc(OC)c1OC [Compound 38] | < 50 µM |

Same assay, conditions: Homo sapiens, test (2), average±standard deviation of three wells

| IC50 | SMILES |
| --- | --- |
| 0.63 ± 0.03 µM | CCC(CO)/N=C1\CCCc2c1[nH]c1ccc(C)cc21 (stereo not drawn) [AH057, reference compound] |

Test system: LO2 (human normal liver cells)
Assay: In vitro proliferation inhibition (CCK-8), LO2
Type: cell-based
Settings: LO2, test (2), average±standard deviation of three wells
Source text: • 1) Cell sources: HeLa (human cervical cancer cells), CaSki (human cervical cancer intestinal metastasis cells), Huh7 (human liver cancer cells), HepG2 (human liver cancer cells), Hep3B (human liver cancer cells) were purchased from the Chinese Academy of Sciences cell bank (Shanghai); LO2 (human normal liver cells) and HcerEpic (human normal uterine epithelial cells) were from ATCC. • 2) Cell culture and passage: The cell culture and passage method is the same as that described in “The inhibitory effect of compounds on the OCT4 protein in tumor stem cells (CSC)”. • 3) Cell dosing treatment: The each type of cells mentioned above was digested, counted, and inoculated in each well of the 96 well cell culture plate (#3988, Corning) at a density of 5000 cells/200 μl culture medium. They were cultured in a cell culture incubator at 37° C. and 5% CO2 for 24 hours to allow the cells to fully adherent to the wall. Then, the original culture medium was replaced with complete culture medium containing gradient diluted KZT-A5 (each concentration with 3 repeated wells) as well as DMSO (#D5879, Sigma Aldrich) solvent control, and they are cultured for additional 72 hours. • 4) Pharmacodynamic test and statistics: First, the morphology of cells treated with the above compounds was observed, photographed and recorded using an inverted phase contrast microscope (X71, Olympus). Then the original culture medium was replaced with phenol red free culture medium containing CCK-8 detection reagent (#E606335, Shanghai Shenggong) respectively, and they are cultured in the incubator for additional 2 hours. Then the OD450 nm absorbance value (OD value) was measured on a multifunctional enzyme-linked immunosorbent assay (168-1130, Bio Rad). […] Further, the IC50 of each compound was calculated in SPSS based on the inhibition rate. […]

| SMILES | IC50 |
| --- | --- |
| CCC(CO)/N=C1\CCCc2c1[nH]c1ccc(C)cc21 (stereo not drawn) [AH057, reference compound] | 85.5 ± 2.92 µM |

Test system: Hep3B (human liver cancer cells)
Assay: In vitro proliferation inhibition (CCK-8), Hep3B
Type: cell-based
Settings: Homo sapiens, test (2), average±standard deviation of three wells
Source text: as §3

| IC50 | SMILES |
| --- | --- |
| 18 ± 1.2 µM | CCC(CO)/N=C1\CCCc2c1[nH]c1ccc(C)cc21 (stereo not drawn) [AH057, reference compound] |

Test system: HeLa cells
Assay: Clone formation of HeLa cells, single drugs and combination
Type: cell-based, human
Settings: 700 nM KZT-A5, 100 nM SGI-1027, two weeks, compared with DMSO control, FIG. 7
Source text: • 1) Cell source: HeLa cells were purchased from the Chinese Academy of Sciences Cell Bank (Shanghai). • 2) Cell culture and passage: The cell culture and passage method is the same as that described in “Inhibition of OCT4 protein in tumor stem cells (CSCs) by compounds”. • 3) Cell dosing treatment: The cells were inoculated into a 6-well plate containing the aforementioned culture medium at a density of 200 cells per well. They were divided into four groups, and DMSO (as blank control group), 700 nM KZT-A5 (as KZT-A5 single drug group), 100 nM SGI-1027 (as SGI-1027 single drug group), and 700 nM KZT-A5+100 nM SGI-1027 (as combination group) was added respectively. After two weeks, they were photographed, and the number of clones was counted in each group respectively.

| SMILES | inhibition of clone formation |
| --- | --- |
| Cc1cc(Nc2ccc(NC(=O)c3ccc(Nc4ccnc5ccccc45)cc3)cc2)nc(N)n1 [SGI-1027, reference compound] | only slightly inhibits clone formation |
